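Interpolation was linear, between the two tested concentrations surrounding the appropriate level; five concentrations were tested over 48 hours in 96-well plates. GI50 = concentration required for 50% inhibition of growth.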 The source made the active and inactive calls. Rule as the data show it: active = GI50 up to about 1.1 µM and inactive = higher.
Assays:
Test in all cases: NCI-60 cell line screen, 48 h
786-0 = tested on: 786-0
M14 = tested on: M14
IGROV-1 = tested on: IGROV-1
OVCAR-4 = tested on: OVCAR-4
UACC-62 = tested on: UACC-62
HCT-15 = tested on: HCT-15
OVCAR-3 = tested on: OVCAR-3
SR = tested on: SR
SNB-75 = tested on: SNB-75
DMS-114 = tested on: DMS-114
LXFL 529 = tested on: LXFL 529
NCI-H23 = tested on: NCI-H23
ACHN = tested on: ACHN
UACC-257 = tested on: UACC-257
KM12 = tested on: KM12
NCI-H522 = tested on: NCI-H522

CC1=C2[C@@H](c3ccccc3)C3C=CC2(C=C3C(F)(F)F)N(C(=O)NC2CCCCC2)C1=O (some centres not stated)
GI50 (786-0): 78 µM (inactive)
GI50 (M14): 81.3 µM (inactive)
GI50 (IGROV-1): > 100 µM (inactive)
GI50 (OVCAR-4): > 100 µM (inactive)
GI50 (UACC-62): > 100 µM (inactive)
GI50 (HCT-15): 81.3 µM
GI50 (OVCAR-3): > 100 µM (inactive)
GI50 (SR): 15.8 µM (inactive)
GI50 (SNB-75): > 100 µM (inactive)
GI50 (DMS-114): 35.1 µM (inactive)
GI50 (LXFL 529): 36.1 µM (inactive)
GI50 (NCI-H23): 59.8 µM (inactive)
GI50 (ACHN): > 100 µM (inactive)
GI50 (UACC-257): 36.2 µM (inactive)
GI50 (KM12): 72.6 µM (inactive)

CCCCCCCCCC/C=C/C=O
GI50 (M14): > 100 µM (inactive)
GI50 (IGROV-1): > 100 µM (inactive)
GI50 (UACC-62): > 100 µM (inactive)
GI50 (HCT-15): > 100 µM
GI50 (OVCAR-3): > 100 µM (inactive)
GI50 (SR): > 100 µM (inactive)
GI50 (NCI-H522): > 100 µM (inactive)
GI50 (SNB-75): > 100 µM (inactive)
GI50 (DMS-114): > 100 µM (inactive)
GI50 (LXFL 529): > 100 µM (inactive)
GI50 (NCI-H23): > 100 µM (inactive)
GI50 (ACHN): > 100 µM (inactive)
GI50 (UACC-257): > 100 µM (inactive)
GI50 (KM12): > 100 µM (inactive)

COc1ccc(Nc2nc3ccccc3nc2-c2cccs2)cc1
GI50 (786-0): 75 µM (inactive)
GI50 (M14): 47.1 µM (inactive)
GI50 (IGROV-1): > 100 µM (inactive)
GI50 (OVCAR-4): > 100 µM (inactive)
GI50 (UACC-62): > 100 µM (inactive)
GI50 (HCT-15): > 100 µM
GI50 (OVCAR-3): > 100 µM (inactive)
GI50 (SR): 55 µM (inactive)
GI50 (NCI-H522): 59.4 µM (inactive)
GI50 (SNB-75): 28.6 µM (inactive)
GI50 (DMS-114): 92.9 µM (inactive)
GI50 (LXFL 529): 54.5 µM (inactive)
GI50 (NCI-H23): > 100 µM (inactive)
GI50 (ACHN): > 100 µM (inactive)
GI50 (UACC-257): > 100 µM (inactive)
GI50 (KM12): > 100 µM (inactive)

COc1cc2oc(-c3ccc(O)cc3)cc(=O)c2c(O)c1C1OC(CO)C(O)C(O)C1O (configuration not stated)
GI50 (786-0): > 100 µM (inactive)
GI50 (M14): > 100 µM (inactive)
GI50 (IGROV-1): > 100 µM (inactive)
GI50 (OVCAR-4): > 100 µM (inactive)
GI50 (UACC-62): > 100 µM (inactive)
GI50 (HCT-15): > 100 µM
GI50 (OVCAR-3): > 100 µM (inactive)
GI50 (SR): > 100 µM (inactive)
GI50 (NCI-H522): > 100 µM (inactive)
GI50 (SNB-75): > 100 µM (inactive)
GI50 (DMS-114): > 100 µM (inactive)
GI50 (LXFL 529): > 100 µM (inactive)
GI50 (NCI-H23): > 100 µM (inactive)
GI50 (ACHN): > 100 µM (inactive)
GI50 (UACC-257): > 100 µM (inactive)
GI50 (KM12): > 100 µM (inactive)

CC1=C(C(=O)Nc2cccc(Cl)c2)C(c2ccc([N+](=O)[O-])cc2)C(C(=O)Nc2cccc(Cl)c2)=C(C)N1
GI50 (786-0): 22 µM (inactive)
GI50 (M14): 16.6 µM (inactive)
GI50 (IGROV-1): 26.5 µM (inactive)
GI50 (OVCAR-4): 20.7 µM (inactive)
GI50 (UACC-62): 14 µM (inactive)
GI50 (HCT-15): 23.7 µM
GI50 (OVCAR-3): 25.6 µM (inactive)
GI50 (NCI-H522): 26.3 µM (inactive)
GI50 (SNB-75): 10.7 µM (inactive)
GI50 (DMS-114): 21.2 µM (inactive)
GI50 (LXFL 529): 23.5 µM (inactive)
GI50 (NCI-H23): 21.3 µM (inactive)
GI50 (ACHN): 25.1 µM (inactive)
GI50 (UACC-257): 16.7 µM (inactive)
GI50 (KM12): 21.4 µM (inactive)

Cn1cc(C(=O)c2ccccc2)ccc1=O
GI50 (786-0): > 100 µM (inactive)
GI50 (M14): > 100 µM (inactive)
GI50 (IGROV-1): > 100 µM (inactive)
GI50 (OVCAR-4): > 100 µM (inactive)
GI50 (UACC-62): > 100 µM (inactive)
GI50 (HCT-15): > 100 µM
GI50 (OVCAR-3): > 100 µM (inactive)
GI50 (SR): > 100 µM (inactive)
GI50 (NCI-H522): > 100 µM (inactive)
GI50 (SNB-75): > 100 µM (inactive)
GI50 (DMS-114): > 100 µM (inactive)
GI50 (LXFL 529): > 100 µM (inactive)
GI50 (NCI-H23): > 100 µM (inactive)
GI50 (ACHN): > 100 µM (inactive)
GI50 (UACC-257): > 100 µM (inactive)
GI50 (KM12): > 100 µM (inactive)

O=C(/C(=C/c1ccc(O)cc1)c1ccccc1)c1ccccc1
GI50 (786-0): 18.5 µM (inactive)
GI50 (M14): 17.1 µM (inactive)
GI50 (IGROV-1): 18.7 µM (inactive)
GI50 (OVCAR-4): 21.9 µM (inactive)
GI50 (UACC-62): 14.1 µM (inactive)
GI50 (HCT-15): 18 µM
GI50 (SR): 23.8 µM (inactive)
GI50 (NCI-H522): 15.2 µM (inactive)
GI50 (SNB-75): 16.7 µM (inactive)
GI50 (DMS-114): 11.5 µM (inactive)
GI50 (LXFL 529): 16.4 µM (inactive)
GI50 (NCI-H23): 15 µM (inactive)
GI50 (ACHN): 16.1 µM (inactive)
GI50 (UACC-257): 18 µM (inactive)
GI50 (KM12): 15.7 µM (inactive)

Reference: ChEMBL document CHEMBL1201862, “PubChem BioAssay data set” (2004)
